# Measured values from patent US20250263370A1 (Tay Therapeutics Limited, priority 2022, published 2025).
# Where “and” joins values, the source holds several entries; their conditions need not be identical. Equal entries are not always repeated. Entries after “also recorded” stand apart in the source; their conditions may differ.
# System: renal fibrosis
# Experiment: Unilateral Urethral Obstruction (UUO) renal fibrosis model in rats: body weight, clinical observations, histopathology scores, serum urea, hydroxyproline
# Format: in vivo, rat
# Parameters: Glomerulosclerosis score / Interstitial nephritis score / Collagen fiber deposition score / Nephropathy score / Total score: scale not given here
# Conditions: for Clinical Observation: — = no observation
# Description: Unilateral Urethral Obstruction (UUO) is a complex model of renal fibrosis (RF) disease. RF is a common outcome in progressive chronic kidney diseases, characterized by excessive formation of internal scar tissue. Surgical obstruction of urine flow can be used to trigger this disease in rodents. The UUO model allows for evaluation of potential drugs as treatment for RF.
# Experimental groups for the study are outlined in Table 10. […] Briefly, animals were anesthetized using a Zoletil/Xylazine mixture (20:1, v:v) for a final dose of 25 mg/kg. The operation area was disinfected with 75% alcohol before shaving. Rats in UUO group were exposed left ureter through a small incision on the left side of the abdomen and ligated with 3-0 silk at two locations about 0.5 cm below the renal hilum. The ureters of sham rats in Group 1 were manipulated but not ligated.
# Starting on Day 0, animals in group 2 were administered daily doses of the vehicle for 14 days.
# Clinical signs for all animals were monitored and recorded daily. Blind clinical nephropathy scores were conducted for all animals in the study. Glomerulosclerosis, interstitial nephritis, collagen fiber deposition, nephropathy were each assessed for all experimental rats, and a total clinical score was determined for each rat. The scoring system represented the degree or percentage of lesions in the whole kidney. Clinical score assessments were performed on Day 14.
# Serum for blood biochemistry analysis was collected into centrifuge tubes without coagulant four hours after final dosing. Blood plasma samples from group 3 was collected into tubes with K2EDTA four hours after final dosing. At the conclusion of the study (end of the 14-day period), animals were euthanized. Kidney tissue was collected four hours after final dosing. Ligated side kidney was divided into three copies ⅓ fix into 10% formalin for H&E analysis, ⅓ into RNA for PCR analysis of tissue biomarkers Col1a1, TGF-b1, MCP-1, IL-1b, IL-6, IL-17, TNF-a, and Timp1, and ⅓ for hydroxyproline assay analyzed by ELISA. RNA was extracted from tissue using the RNeasy mini kit (Qiagen). RNA concentration was measured using a NanoDrop One Spectrophotometer (ThermoFisher) and converted to cDNA using a High-Capacity RNA-to-cDNA kit (Invitrogen). RT-PCR was performed to measure levels of mRNA of different targets using TaqMan® Gene Expression Master Mix and TaqMan® probe/primer sets on a QuantStudio 6, Real-Time PCR System (ThermoFisher). Fold change in target gene expression was determined using the ΔΔCt method.
# [1] = 30 mg/kg BID for 14 days (group 3)
# [2] = Example 101 30 mg/kg, individual animals, histopathology score
smiles,measurement,setting,value
"CNC(=O)c1[nH]c(C(=O)NC2CCC2)cc1O[C@@H](C)c1ccccc1 (stereo in doubt) [Example 101, N^5-cyclobutyl-N^2-methyl-3-(1-phenylethoxy)-1H-pyrrole-2,5-dicarboxamide]",overall effect in UUO / renal fibrosis,30 mg/kg,ameliorates clinical symptoms associated with UUO; also recorded: surprisingly effective against renal fibrosis and renal fibrosis-related conditions
same,animals that exhibited diarrhea in addition to soft stools,[1],One animal
same,animals that exhibited dirty anuses,[1],Three animals
same,body weight over the 14-day study,[1],"slight weight loss over the first seven days of the study, and then gained weight over the remaining seven days"
same,rats that exhibited soft stools during the study,[1],Four
same,level of collagen fiber deposition relative to UUO + vehicle,"30 mg/kg BID, Day 14",reduced
same,level of interstitial nephritis relative to UUO + vehicle,"30 mg/kg BID, Day 14",reduced
same,level of nephropathy relative to UUO + vehicle,"30 mg/kg BID, Day 14",reduced
same,pathology staining of kidney (FIG. 13B),"30 mg/kg BID, Day 14","mild interstitial nephritis with neutrophil and lymphocyte infiltration, degeneration and necrosis of renal tubular epithelial cells, and high tubular dilatation"
same,total clinical scores relative to UUO + vehicle,"30 mg/kg BID, Day 14",reduced
same,serum urea levels between the three experimental groups,"30 mg/kg BID, four hours after final dosing",No significant differences
same,hydroxyproline levels between the three experimental groups,"30 mg/kg BID, kidney tissue",No significant differences
same,Body weight,"30 mg/kg, Day 0, individual animals",324 g and 307 g and 295 g and 302 g and 285 g and 297 g and 294 g and 306 g
same,Body weight,"30 mg/kg, Day 1, individual animals",293 g and 284 g (2×) and 277 g (2×) and 279 g and 276 g and 302 g
same,Body weight,"30 mg/kg, Day 2, individual animals",299 g (2×) and 274 g (3×) and 275 g and 273 g and 303 g
same,Body weight,"30 mg/kg, Day 3, individual animals",306 g and 266 g and 267 g and 274 g (2×) and 278 g and 304 g and 305 g
same,Body weight,"30 mg/kg, Day 4, individual animals",315 g and 259 g and 262 g and 276 g and 283 g and 277 g and 309 g and 312 g
same,Body weight,"30 mg/kg, Day 5, individual animals",310 g and 263 g and 254 g and 282 g and 284 g and 279 g and 302 g and 315 g
same,Body weight,"30 mg/kg, Day 6, individual animals",323 g and 265 g and 258 g and 286 g and 285 g and 284 g and 304 g and 321 g
same,Body weight,"30 mg/kg, Day 7, individual animals",322 g and 270 g and 258 g and 297 g and 289 g and 287 g and 307 g and 324 g
same,Body weight,"30 mg/kg, Day 8, individual animals",322 g and 271 g and 260 g and 296 g
same,Body weight,"30 mg/kg, Day 9, individual animals",331 g and 276 g and 264 g and 303 g
same,Body weight,"30 mg/kg, Day 10, individual animals",330 g and 277 g and 261 g and 311 g
same,Body weight,"30 mg/kg, Day 11, individual animals",327 g and 275 g and 265 g and 297 g
same,Body weight,"30 mg/kg, Day 12, individual animals",318 g and 285 g and 260 g and 291 g
same,Body weight,"30 mg/kg, Day 13, individual animals",328 g and 283 g and 276 g and 304 g
same,Body weight,"30 mg/kg, Day 14, individual animals",334 g and 286 g and 271 g and 313 g
same,Body weight,"30 mg/kg, Day −1, individual animals",306 g and 287 g and 299 g and 295 g and 281 g and 285 g and 296 g and 301 g
same,Serum Urea Mean ± SD,"30 mg/kg, group mean",5.85 ± 0.69 mmol/L
same,Serum Urea,"30 mg/kg, individual animals",4.95 mmol/L and 6.04 mmol/L and 6.62 mmol/L and 5.01 mmol/L and 5.28 mmol/L and 6.26 mmol/L and 5.90 mmol/L and 6.70 mmol/L
same,Collagen fiber deposition score,[2],2 (2×) and 1 (6×)
same,Glomerulosclerosis score,[2],0
same,Interstitial nephritis score,[2],3 (5×) and 2 (3×)
same,Nephropathy score,[2],2 (2×) and 1 (6×)
same,Total score,"Example 101 30 mg/kg, individual animals, sum of histopathology scores",7 (2×) and 5 (3×) and 4 (3×)
same,"Body weight, Mean ± SD","group 3, Day 0, group mean",301 g
same,"Body weight, Mean ± SD","group 3, Day 1, group mean",284 g
same,"Body weight, Mean ± SD","group 3, Day 2, group mean",284 g
same,"Body weight, Mean ± SD","group 3, Day 3, group mean",284 g
same,Clinical Observation,"group 3, Day 3, individual animals",diarrhea
same,"Body weight, Mean ± SD","group 3, Day 4, group mean",287 g
same,"Body weight, Mean ± SD","group 3, Day 5, group mean",286 g
same,Clinical Observation,"group 3, Day 5, individual animals",Anal
same,"Body weight, Mean ± SD","group 3, Day 6, group mean",291 g
same,Clinical Observation,"group 3, Day 6, individual animals",Anal
same,"Body weight, Mean ± SD","group 3, Day 7, group mean",294 g
same,Clinical Observation,"group 3, Day 7, individual animals",Anal
same,"Body weight, Mean ± SD","group 3, Day 8, group mean",296 g
same,Clinical Observation,"group 3, Day 8, individual animals",soft
same,"Body weight, Mean ± SD","group 3, Day 9, group mean",300 g
same,Clinical Observation,"group 3, Day 9, individual animals",soft
same,"Body weight, Mean ± SD","group 3, Day 10, group mean",303 g
same,Clinical Observation,"group 3, Day 10, individual animals",soft
same,"Body weight, Mean ± SD","group 3, Day 11, group mean",306 g
same,"Body weight, Mean ± SD","group 3, Day 12, group mean",304 g
same,"Body weight, Mean ± SD","group 3, Day 13, group mean",312 g
same,Clinical Observation,"group 3, Day 13, individual animals",soft
same,"Body weight, Mean ± SD","group 3, Day 14, group mean",314 g
same,Clinical Observation,"group 3, Day 14, individual animals",Anal (2×) and soft
same,"Body weight, Mean ± SD","group 3, Day −1, group mean",294 g
same,"Final Hydroxyproline Con., Mean",group mean,0.65 μg/mg tissue
same,Final Hydroxyproline Con.,individual animals,0.72 μg/mg tissue (2×) and 0.69 μg/mg tissue and 0.64 μg/mg tissue and 0.60 μg/mg tissue and 0.66 μg/mg tissue and 0.58 μg/mg tissue and 0.55 μg/mg tissue
